Active and inactive are the calls of the source. How the calls were made is not given here.

This test deals with Leishmania major promastigote growth inhibition. Put plainly: antileishmanial activity against L. major promastigotes – EC50, dose response (AID 2008).
With `c1cnc2c(c1)ccc1cccnc12`, the EC50 was > 5000 nM (inactive).
Under `O=C1C2ON(c3ccc(Br)cc3)C(c3cccnc3)C2C(=O)N1C1CCCCC1` (centres undefined) stands 513 nM; under `Cc1cc(C)nc(/N=c2/ssnc2Cl)c1`, 353 nM; under `Cc1ccc(-c2cc(-c3ccc(C)cc3)[n+](C)o2)cc1`, 183 nM.
With `N#CC(c1cccc(Cl)c1)c1ccc2c(C(F)(F)F)cc(C(F)(F)F)nc2n1` (centres undefined) the figure was 1180 nM; with `O=C(c1cccnc1)N(c1cc2sc(=O)oc2c2ccccc12)S(=O)(=O)c1ccccc1`, 191 nM.
`CCCOC(=O)CSC1=C(C#N)C(c2ccccc2Cl)CC(=O)N1` (centres undefined): the EC50 was 122 nM.
In the case of `O=C(c1ccccc1)c1c2c(cc3sc4ccccc4[n+]13)-c1cccc3cccc-2c13`, the 50% effective concentration (EC50) was 504 nM.
With `N#CC(c1ccc(Cl)cc1)c1ccc2c(C(F)(F)F)cc(C(F)(F)F)nc2n1` (centres undefined), the EC50 is 564 nM.
Regarding `Cc1[nH]c2c(Cl)cccc2c(=O)c1CN1CCCC1`, the EC50 was 390 nM.
On to `COC(=O)c1cc2ccsc2n1Cc1nc(-c2ccc(OC)cc2)oc1C`, for which the EC50 was 104 nM.
Under `C[n+]1c(-c2ccccc2)cc(CCCCc2cc(-c3ccccc3)[n+](C)c(-c3ccccc3)c2)cc1-c1ccccc1` stands 702 nM.
Under `Clc1ccccc1C(c1ccccc1)(c1ccccc1)n1ccnc1` stands 145 nM; under `O=[N+]([O-])c1ccc(NNC(=S)Nc2ccc(F)cc2)cc1`, 449 nM; under `CN(C)CCOc1ccccc1Cc1ccccc1`, 498 nM.
As for `COc1ccccc1-n1cnc2c(c1=O)c1nc3ccccc3nc1n2-c1ccc(C)c(C)c1`, the EC50 is 81.8 nM.
As to `O=C1c2ccccc2C(=O)C12Cc1ccccc1N1CCN(c3ccccc3)CC12` (centres undefined), the EC50 was 1910 nM.
With `CN(C)C(=S)SSC(=S)N(C)C`, the EC50 was 97.1 nM.
In the case of `N=c1c2c(n(Cc3ccccc3)c3c1CCC3)CCC2`, the EC50 was 83.4 nM.
With `COc1cc(-c2c(C#N)c(N)nc(SCc3ccncc3)c2C#N)cc(OC)c1OC` the figure was 1020 nM; with `Cc1cccc(OCCn2c(NC(=O)c3ccco3)nc3ccccc32)c1`, 1870 nM.
With `CN(C)c1nc(-c2ccccn2)nnc1-c1ccccc1` the figure was 1460 nM; with `c1ccc(C2CCC(N3CCC(N4CCCCC4)CC3)CC2)cc1` (centres undefined), 2530 nM; with `O=C(c1ccc(-c2ccccc2)c(F)c1)C1CCCN(CCO)C1` (centres undefined), 510 nM.
With `Cc1cc(C(=O)CCl)c(C)n1Cc1ccco1` the figure was 783 nM; with `COC(=O)[C@@H]1[C@@H](C(=O)OC)C2(c3ccccc3-c3ccccc32)N(c2ccc(Cl)cc2)N1C#N`, > 5000 nM (inactive); with `N=C(N)c1ccc(OCCCCCOc2ccc(C(=N)N)cc2)cc1`, 45.1 nM.
As to `CCC(/C=C1\Sc2ccc(OC)cc2N1CCO)=C\c1sc2ccc(OC)cc2[n+]1CCO`, the EC50 is 487 nM.
With `O=c1c(Cl)nc2cc(Cl)ccc2n1CCNc1ncc(C(F)(F)F)cc1Cl`, the EC50 was 512 nM.
For the molecule `Cc1ccc(-c2cc3cccc[n+]3cc2-c2ccc(C)cc2)cc1`, the EC50 was 228 nM.
With `CNc1ccccc1C(C)(C)c1cc(-c2cccc(Br)c2)no1` the figure was 2780 nM; with `COCCCNCCCCOc1ccc(Br)cc1Cl`, 1.73 nM.
With `Cc1ccc(OCCCCn2ccnc2)c(Cl)c1` the figure was 131 nM; with `CCN(CC)CCN(C)C1CCC(c2ccccc2)CC1` (centres undefined), 823 nM; with `c1ccc2c(c1)OC(CCCN1CCCCC1)c1ccccc1S2` (centres undefined), 134 nM.
For `CCOC(=O)c1c2c(n(C)c1C)C(=O)C(=O)c1ccc(Br)cc1-2`, the EC50 is 85.7 nM.
In the case of `O=C(O)CCC(=O)Nc1ccc(N2CCCCCC2)cc1`, the EC50 is 1740 nM.
Under `CCn1nc(/C=C/c2ccccc2)nc2c(=O)n(C)c(=O)nc1-2` stands > 5000 nM (inactive).
With `COc1ccc(-[n+]2c(C)cc(/C=C3\Sc4ccccc4N3C)cc2C)cc1` the figure was less than 10 nM.

The values are drawn from PubChem BioAssay AID2008 (University of Pittsburgh Molecular Library Screening Center, 2009).
